Measured values published in patent US20110275583A1, “Synergistic active compound combinations” (priority 2010, published 2011).
Where two headings read alike, the source gives them in different places.

What was measured:
Type in all cases: in vivo
[1] = system: armyworm (Spodoptera frugiperda); experiment: Spodoptera frugiperda larvae test (sprayed cabbage leaves); conditions: single active compound
Excerpt: (§1) The expected action for a given combination of two active compounds can be calculated as follows, using the formula of S. R. Colby, Weeds 15 (1967), 20-22: • If • X is the kill rate, expressed as % of the untreated control, when employing active compound A at an application rate of m g/ha or in a concentration of in ppm, • Y is the kill rate, expressed as % of the untreated control, when employing active compound B at an application rate of n g/ha or in a concentration of n ppm and • E is the kill rate, expressed as % of the untreated control, when employing active compounds A and B at application rates of m and n g/ha or in a concentration of m and n ppm, • then
(§2) If the actual kill rate exceeds the calculated value, the action of the combination is superadditive, i.e. a synergistic effect is present. In this case, the actually observed kill rate must exceed the value calculated using the above formula for the expected kill rate (E).
(§3) Solvent: 78 parts by weight of acetone • • 1.5 parts by weight of dimethylformamide
(§4) Emulsifier: 0.5 part by weight of alkylaryl polyglycol ether
(§5) To produce a suitable preparation of active compound, 1 part by weight of active compound is mixed with the stated amounts of solvent and emulsifier, and the concentrate is diluted with emulsifier-containing water to the desired concentration.
Cabbage leaves (Brassica oleracea) are treated by being sprayed with the preparation of active compound of the desired concentration and are populated with the armyworm (Spodoptera frugiperda) while the leaves are still moist.
After the desired period of time, the kill in % is determined. 100% means that all caterpillars have been killed; 0% means that none of the caterpillars have been killed. The kill rates determined are entered, into Colby's formula.

[2] = system: larvae of the mustard beetle (Phaedon cochleariae); experiment: Phaedon cochleariae larvae test (sprayed cabbage leaves); conditions: single active compound
Excerpt: as §1, §2, §3, §4, §5
Cabbage leaves (Brassica oleracea) are treated by spraying with the active compound preparation of the desired concentration and populated with larvae of the mustard beetle (Phaedon cochleariae) while the leaves are still moist.
After the desired period of time, the kill in % is determined. 100% means that all beetle larvae have been killed; 0% means that none of the beetle larvae have been killed. The kill rates determined are entered into Colby's formula.

[3] = system: greenhouse red spider mite (Tetranychus urticae); experiment: Tetranychus test, OP-resistant/spray treatment (bean leaf discs); conditions: single active compound
Excerpt: as §1, §2, §3, §4, §5
Discs of bean leaves (Phaseolus vulgaris) which are infested by all stages of the greenhouse red spider mite (Tetranychus urticae) are sprayed with an active compound preparation of the desired concentration.
After the desired period of time, the effect in % is determined. 100% means that all of the spider mites have been killed; 0% means that none of the spider mites have been killed.

[4] = system: green peach aphid (Myzus persicae); experiment: Myzus persicae test (spray treatment of infested cabbage leaves)
Excerpt: as §1, §2, §3, §4, §5
Cabbage leaves (Brassica oleracea) which are heavily infested by the green peach aphid (Myzus persicae) are treated by spraying with the active compound preparation of the desired concentration.
After the desired period of time, the kill in % is determined. 100% means that all of the aphids have been killed; 0% means that none of the aphids have been killed. The kill rates determined are entered into Colby's formula.

[5] = Spodoptera frugiperda, 144 h, 6 d, read-out: Kill in % after 6 d
[6] = Phaedon cochleariae, 48 h, 0.8 g/ha, 2 d, read-out: Kill in % after 2 d
[7] = Tetranychus urticae, foliar, 48 h, 2 d, read-out: Kill in % after 2 d
[8] = Myzus persicae, 24 h, 0.8 g/ha, after 1 d, read-out: Kill in % after 1d
[9] = Spodoptera frugiperda, 144 h, 0.16 g/ha, 6 d, read-out: Kill in % after 6 d
[10] = Phaedon cochleariae, 144 h, 0.8 g/ha, 6 d, read-out: Kill in % after 6 d
[11] = Tetranychus urticae, foliar, 144 h, 6 d, read-out: Kill in % after 6 d
[12] = Myzus persicae, 24 h, after 1 d, read-out: Kill in % after 1d
[13] = Tetranychus urticae, foliar, 48 h, 100 g/ha, 2 d, read-out: Kill in % after 2 d
[14] = Phaedon cochleariae, 144 h, 6 d, read-out: Kill in % after 6 d
[15] = Spodoptera frugiperda, 48 h, 2 d, read-out: Kill in % after 2 d
[16] = Phaedon cochleariae, 48 h, 2 d, read-out: Kill in % after 2 d
[17] = Tetranychus urticae, foliar, 144 h, 100 g/ha, 6 d, read-out: Kill in % after 6 d
[18] = Myzus persicae, 144 h, single active compound, 6 d, read-out: Kill in % after 6 d
[19] = Spodoptera frugiperda, 144 h, 4 g/ha, 6 d, read-out: Kill in % after 6 d

`CNC(=O)c1cc(C#N)cc(C)c1NC(=O)c1cc(Br)nn1-c1ncccc1Cl` [Cyazypyr, cyantraniliprole] gave a pest or weed control at 0.8 g/ha [1, 5] of 50%, a pest or weed control at 0.8 g/ha [2, 6] of 50% and a pest or weed control at 0.16 g/ha ([2]; Phaedon cochleariae, 144 h, 0.16 g/ha, 6 d, read-out: Kill in % after 6 d) of 33%. For the same molecule, the pest or weed control at 20 g/ha [3, 7] was 0% and the pest or weed control at 0.8 g/ha [4, 8] was 0%.
`CC1(C)C(/C=C(\Cl)C(F)(F)F)C1C(=O)OC(C#N)c1cccc(Oc2ccccc2)c1` [L-cyhalothrin, lambda-cyhalothrin] showed a pest or weed control at 0.16 g/ha [1, 9] of 0%, a pest or weed control at 0.8 g/ha [1, 5] of 50% and a pest or weed control at 0.8 g/ha [2, 10] of 33%. For the same molecule, the pest or weed control at 0.8 g/ha ([3]; Tetranychus urticae, foliar, 144 h, 0.8 g/ha, 6 d, read-out: Kill in % after 6 d) was 0%, the pest or weed control at 4 g/ha [3, 11] was 80% and the pest or weed control at 0.032 g/ha [4, 12] was 0%.
`CNC(=O)O/N=C/C(C)(C)SC` [aldicarb] showed a pest or weed control at 100 g/ha [1, 5] of 0% and a pest or weed control at 100 g/ha [3, 13] of 0%.
In the case of `CC1(C)C(C=C(Cl)Cl)C1C(=O)OC(C#N)c1cccc(Oc2ccccc2)c1` (stereo not drawn) [alpha-cypermethrin], the pest or weed control at 0.8 g/ha [1, 5] is reported as 33%, the pest or weed control at 4 g/ha [2, 14] is reported as 67% and the pest or weed control at 0.16 g/ha ([4]; Myzus persicae, 24 h, 0.16 g/ha, after 1 d, read-out: Kill in % after 1d) is reported as 0%.
Molecule `CNC(=O)c1cc(Cl)cc(C)c1NC(=O)c1cc(Br)nn1-c1ncccc1Cl` [chloranthraniliprole, chlorantraniliprole] has a pest or weed control at 4 g/ha ([1]; Spodoptera frugiperda, 48 h, 4 g/ha, 2 d, read-out: Kill in % after 2 d) of 67%, a pest or weed control at 0.8 g/ha [2, 6] of 67% and a pest or weed control at 0.8 g/ha [4, 8] of 0%.
In the case of `CCOP(=S)(OCC)Oc1nc(Cl)c(Cl)cc1Cl` [chlorpyrifos], the “Kill in % after 6 d” value ([1]; 4 g/ha, 6 d) is reported as 0% and the “Kill in % after 6 d” value ([3]; 100 g/ha, 6 d) is reported as 0%.
Work on `c1cnc(-c2cccc(-c3cnc(-c4cccnc4)s3)n2)nc1` [compound of the formula (I-2)] yielded a pest or weed control at 20 g/ha [1, 15] of 0%, a pest or weed control at 100 g/ha [1, 15] of 0% and a pest or weed control at 500 g/ha [1, 15] of 0%. For the same molecule, the pest or weed control at 20 g/ha [1, 5] was 0%, the pest or weed control at 100 g/ha [1, 5] was 0% and the pest or weed control at 500 g/ha [1, 5] was 0%. The pest or weed control at 4 g/ha [2, 16] was 0%, the pest or weed control at 20 g/ha [2, 16] was 0% and the pest or weed control at 100 g/ha [2, 16] was 0%. The pest or weed control at 500 g/ha [2, 16] was 0%, the pest or weed control at 4 g/ha [2, 14] was 0% and the pest or weed control at 20 g/ha [2, 14] was 0%. It also gave a pest or weed control at 100 g/ha [2, 14] of 0%, a pest or weed control at 500 g/ha [2, 14] of 0% and a pest or weed control at 4 g/ha [3, 7] of 0%. It also gave a pest or weed control at 20 g/ha [3, 7] of 0%, a pest or weed control at 100 g/ha [3, 13] of 0% and a pest or weed control at 500 g/ha [3, 7] of 0%. The pest or weed control at 4 g/ha [3, 11] was 0%, the pest or weed control at 500 g/ha [3, 11] was 0% and the pest or weed control at 4 g/ha [4, 12] was 0%. For the same molecule, the pest or weed control at 20 g/ha [4, 12] was 0%, the pest or weed control at 100 g/ha [4, 12] was 0% and the pest or weed control at 500 g/ha [4, 12] was 0%.
`Fc1cncc(-c2ncc(-c3cccc(-c4ncccn4)n3)s2)c1` [compound of the formula (I-3)] showed a pest or weed control at 500 g/ha [1, 15] of 0%, a pest or weed control at 20 g/ha [1, 5] of 0% and a pest or weed control at 100 g/ha [1, 5] of 0%. The pest or weed control at 500 g/ha [1, 5] was 0%, the pest or weed control at 4 g/ha [2, 16] was 0% and the pest or weed control at 20 g/ha [2, 16] was 0%. For the same molecule, the pest or weed control at 100 g/ha [2, 16] was 0%, the pest or weed control at 500 g/ha [2, 16] was 0% and the pest or weed control at 4 g/ha [2, 14] was 0%. For the same molecule, the pest or weed control at 100 g/ha [2, 14] was 0%, the pest or weed control at 500 g/ha [2, 14] was 0% and the pest or weed control at 4 g/ha [3, 7] was 0%. For the same molecule, the pest or weed control at 20 g/ha [3, 7] was 0%, the pest or weed control at 500 g/ha [3, 7] was 0% and the pest or weed control at 4 g/ha [3, 11] was 0%. The pest or weed control at 20 g/ha [3, 11] was 0%, the pest or weed control at 100 g/ha [3, 17] was 0% and the pest or weed control at 500 g/ha [3, 11] was 0%. For the same molecule, the pest or weed control at 4 g/ha [4, 12] was 0%, the pest or weed control at 20 g/ha [4, 12] was 0% and the pest or weed control at 100 g/ha [4, 12] was 0%. It also gave a pest or weed control at 500 g/ha [4, 12] of 0%, a pest or weed control at 4 g/ha [4, 18] of 70% and a pest or weed control at 20 g/ha [4, 18] of 70%.
In the case of `CC1(C)[C@H](C(=O)O[C@H](C#N)c2cccc(Oc3ccccc3)c2)[C@@H]1C=C(Br)Br` [deltamethrin], the pest or weed control at 0.032 g/ha ([1]; Spodoptera frugiperda, 144 h, 0.032 g/ha, 6 d, read-out: Kill in % after 6 d) is reported as 33%, the pest or weed control at 0.8 g/ha [2, 6] is reported as 67% and the pest or weed control at 0.032 g/ha [4, 12] is reported as 70%.
Work on `N#Cc1nn(-c2c(Cl)cc(C(F)(F)F)cc2Cl)c(N)c1[S+]([O-])C(F)(F)F` (centres unmarked) [fipronil] yielded a pest or weed control at 4 g/ha [1, 19] of 0%, a pest or weed control at 0.8 g/ha [2, 6] of 50% and a pest or weed control at 100 g/ha [3, 17] of 0%.
Work on `CNC(=O)Oc1cc(C)c(SC)c(C)c1` [methiocarb] yielded a pest or weed control at 100 g/ha [1, 15] of 0% and a pest or weed control at 100 g/ha [2, 16] of 50%.
With `FC(F)(F)c1ccc(OCCCOc2c(Cl)cc(OCC=C(Cl)Cl)cc2Cl)nc1` [pyridalyl] the pest or weed control at 4 g/ha [1, 19] was 17%, the pest or weed control at 20 g/ha [3, 11] was 10% and the pest or weed control at 0.8 g/ha ([4]; Myzus persicae, 144 h, 0.8 g/ha, single active compound, 6 d, read-out: Kill in % after 6 d) was 0%.
`CC1(C)C(C=C(Cl)Cl)C1C(=O)OC(C#N)c1ccc(F)c(Oc2ccccc2)c1` (stereo not drawn) [β-cyfluthrin, beta-cyfluthrin] showed a pest or weed control at 0.16 g/ha [1, 9] of 0%, a pest or weed control at 0.8 g/ha [2, 10] of 33% and a pest or weed control at 4 g/ha [3, 11] of 0%. It also gave a pest or weed control at 0.032 g/ha [4, 12] of 0%.
For emamectin benzoate, the “Kill in % after 2 d” value ([1]; 0.16 g/ha, 2 d) was 0%, the “Kill in % after 2 d” value ([2]; 0.8 g/ha, 2 d) was 50% and the “Kill in % after 2 d” value ([3]; 0.032 g/ha, 2 d) was 0%. For the same molecule, the “Kill in % after 6 d” value ([4]; 0.16 g/ha, single active compound, 6 d) was 0% and the “Kill in % after 1d” value ([4]; 0.8 g/ha, after 1 d) was 0%.
